In experiment [1] the test system is PC-3 prostate cancer cell line. Description: MTT anti-proliferative assay, PC-3. Conditions: 48 h of incubation. Type of experiment: cell-based. The protocol: (§1) Spirooxindoles 6a–p were evaluated for their anti-proliferative potency towards HepG2 liver cancer and PC-3 prostate cancer cell lines. Both cells lines were cultured as monolayers in DMEM supplemented with 10% foetal bovine serum (FBS), L-glutamine (2 mM), penicillin (100 U/mL) and streptomycin sulphate (100 µg/mL). Then, cells were sub-cultured with trypsine/EDTA solution, counted with haemocytometer and plated onto 96-well plates (5000 cells/well) and left overnight so as to form a semi-confluent monolayer.
(§2) Spirooxindoles 6a–p were tested for their in vitro anti-HCC activity against HepG2 cell line, and for their anti-prostate cancer activity against PC-3 cell line by the use of MTT reduction assay. The anticancer drug Adriamycin was co-assayed as the positive control.
(In general: Tetrazolium assays rely on reduction of a dye to a coloured formazan, in cell work by metabolically active cells.)

In experiment [2] the test system is HepG2 hepatocellular carcinoma cell line. The experiment can be described thus: MTT anti-proliferative assay, HepG2. Type of experiment: cell-based. Conditions: Homo sapiens, 48 h of incubation. The protocol: as §1, §2
The nature of experiment [3]: Ferric reducing antioxidant power (FRAP). Conditions: 593 nm, 30 min at 37 °C. How it is done: The Benzie and Strain method[33] was adopted to assess the ferric reducing antioxidant power (FRAP) for spirooxindoles 6a–p. Absorbance of mixtures was recorded at 593 nm after incubation for 30 min at 37 °C. FRAP results were expressed as μM Fe^2+ equivalents.
FRAP assay is a widely used antioxidant assay that uses antioxidant substances as reducing agents in a redox-linked colorimetric reaction, wherein Fe^3+ is reduced to Fe^2+ at acidic pH that results in a formation of a coloured ferrous-probe complex from a colourless ferric-probe complex. In this assay, the electron donation capacity (reflecting the electron transfer ability) of the examined compounds is evaluated.
In this study, all spirooxindoles 6a–p herein reported were evaluated for their potential FRAP. The results were expressed as µM Fe^2+ equivalents and presented in Table 6, where the higher µM Fe^2+ equivalents value means higher FRAP and subsequently higher antioxidant capacity.

Experiment [4] can be described thus: DPPH radical scavenging assay. The settings on record: mean ± SD of three experiments; 30 min, 517 nm. The protocol:
The antioxidant potential of spirooxindoles 6a–p against DPPH˙ was evaluated as per previously described procedures by Brand-Williams et al.[32]. DPPH solution was prepared by dissolving 0.024 g DPPH in methanol (100 mL). In 96-well plates, × μL sample and 200-x μL DPPH solution were added. The plate was incubated for 30 min at room temperature in the dark, and finally, absorbance was recorded at 517 nm wavelength. Ascorbic acid was used as positive control. The percent radical scavenging potential was calculated for each compound via the following equation: Scavenging effect (%) = {(Absorbance of control − Absorbance of sample)/Absorbance of control} × 100.
The DPPH (2,2-diphenyl-1-picrylhydrazyl) radical scavenging activity assay is considered as one of the most common and simple methods for measuring the antioxidant ability to trap free radicals. […] Substances that have the potential to act as electron donors result in reduction of this DPPH radical to the corresponding DPPH2 disclosing their antioxidant potential. The principle of the method relies upon measuring the absorbance of the odd electrons of DPPH at 517 nm. The absorbance decreases, in the presence of free radical scavengers, proportional to the decrease of the DPPH radical concentration.

Experiment [5] concerns non-tumorigenic human breast MCF-10A cell line. Description: Cytotoxicity towards non-tumorigenic MCF-10A cells. Type of experiment: cell-based.
For experiment [6], the system named is HepG2 hepatocellular carcinoma cell line. Description: MTT anti-proliferative assay, HepG2. It is filed as cell-based. Conditions: 48 h exposure, phase contrast microscopy.

SMILES strings stand for the structures.

Consider `COc1cccc2c1C(=O)c1c(O)c3c(c(O)c1C2=O)C[C@@](O)(C(=O)CO)C[C@@H]3O[C@H]1C[C@H](N)[C@H](O)[C@H](C)O1` [Adriamycin, reference compound], for which the IC50 in experiment [1] stood at 0.62 µM; in experiment [2] it was 0.12 µM.

Take `O=C1O[C@H]([C@@H](O)CO)C(O)=C1O` [Ascorbic acid, reference compound]: the “FRAP, µM (Fe^2+ Eq.)” value in experiment [3] was 13.42 µM (Fe^2+ Eq.). Moreover, the “DPPH radical scavenging IC50” value in experiment [4] worked out at 45.89 ± 2.39 µg/mL.

`Cc1ccc(C2=C(C#N)C3(C(=O)Nc4ccccc43)c3c(-c4cccs4)nn(-c4ccccc4)c3N2)cc1` (centres unmarked) [Compound 6b]: the IC50 was 34.2 µM in experiment [1], 122 µM in experiment [5] and 21 µM in experiment [2]. For the same compound, the “FRAP, µM (Fe^2+ Eq.)” value in experiment [3] is 6.933 µM (Fe^2+ Eq.). For the same compound, the “DPPH radical scavenging IC50” value in experiment [4] is reported as 113.45 ± 5.59 µg/mL.

Turning to `COc1ccc(C2=C(C#N)C3(C(=O)Nc4ccccc43)c3c(-c4cccs4)nn(-c4ccccc4)c3N2)cc1` (centres unmarked) [Compound 6c], the figures for the IC50 in experiment [1], in experiment [5] and in experiment [2] were 43.7 µM, 141 µM and 19.1 µM, respectively. Also, the “FRAP, µM (Fe^2+ Eq.)” value in experiment [3] is given as 10.32 µM (Fe^2+ Eq.). Also, the “DPPH radical scavenging IC50” value in experiment [4] was 43.04 ± 2.39 µg/mL.

Regarding `N#CC1=C(c2ccc(Cl)cc2)Nc2c(c(-c3cccs3)nn2-c2ccccc2)C12C(=O)Nc1ccccc12` (centres unmarked) [Compound 6d], the results for the IC50 in experiment [1] and in experiment [2] were more than 50 µM and 49.1 µM, respectively. For the same compound, in experiment [3], the “FRAP, µM (Fe^2+ Eq.)” value is recorded as 10.99 µM (Fe^2+ Eq.). The “DPPH radical scavenging IC50” value in experiment [4] came to 33.43 ± 1.24 µg/mL.

As for `N#CC1=C(c2ccccc2)Nc2c(c(-c3cccs3)nn2-c2ccccc2)C12C(=O)Nc1ccc(Cl)cc12` (centres unmarked) [Compound 6e], the IC50 in experiment [1] came out at 13.5 µM; in experiment [5], 69.7 µM; in experiment [2], 8.4 µM. Moreover, in experiment [3], the “FRAP, µM (Fe^2+ Eq.)” value was 10.12 µM (Fe^2+ Eq.). Besides, the “Morphological changes of HepG2 cells” value in experiment [6] is “cell rounding, shrinkage and monolayer disruption”. Moreover, the “DPPH radical scavenging IC50” value in experiment [4] is reported as 36.03 ± 1.37 µg/mL.

As to `Cc1ccc(C2=C(C#N)C3(C(=O)Nc4ccc(Cl)cc43)c3c(-c4cccs4)nn(-c4ccccc4)c3N2)cc1` (centres unmarked) [Compound 6f], the half-inhibitory concentration (IC50) in experiment [1] is 29.3 µM; in experiment [5] it was 159 µM; in experiment [2], 32.7 µM. Further, in experiment [3], the “FRAP, µM (Fe^2+ Eq.)” value is on record as 11.36 µM (Fe^2+ Eq.). Further, the “DPPH radical scavenging IC50” value in experiment [4] is 40.31 ± 2.61 µg/mL.

For the compound `COc1ccc(C2=C(C#N)C3(C(=O)Nc4ccc(Cl)cc43)c3c(-c4cccs4)nn(-c4ccccc4)c3N2)cc1` (centres unmarked) [Compound 6g], the IC50 in experiment [1] and in experiment [2] was more than 50 µM each time. Also, the “FRAP, µM (Fe^2+ Eq.)” value in experiment [3] is reported as 7.79 µM (Fe^2+ Eq.). Besides, the “DPPH radical scavenging IC50” value in experiment [4] is on record as 97.47 ± 5.62 µg/mL.

As to `N#CC1=C(c2ccc(Cl)cc2)Nc2c(c(-c3cccs3)nn2-c2ccccc2)C12C(=O)Nc1ccc(Cl)cc12` (centres unmarked) [Compound 6h], the IC50 in experiment [1] is more than 50 µM; in experiment [2], 19.9 µM. In addition, the “FRAP, µM (Fe^2+ Eq.)” value in experiment [3] is given as 11.35 µM (Fe^2+ Eq.). Further, the “DPPH radical scavenging IC50” value in experiment [4] is on record as 46.29 ± 2.18 µg/mL.

Consider `N#CC1=C(c2ccccc2)Nc2c(c(-c3cccs3)nn2-c2ccccc2)C12C(=O)Nc1ccc(Br)cc12` (centres unmarked) [Compound 6i], for which the 50% inhibitory concentration (IC50) is 17.9 µM in experiment [1], 76.9 µM in experiment [5] and 6.3 µM in experiment [2]. The “FRAP, µM (Fe^2+ Eq.)” value in experiment [3] was 11.88 µM (Fe^2+ Eq.). For the same compound, in experiment [6], the “Morphological changes of HepG2 cells” value was “cell rounding, shrinkage and monolayer disruption”. Besides, in experiment [4], the “DPPH radical scavenging IC50” value is recorded as 36.38 ± 2.71 µg/mL.

Turning to `Cc1ccc(C2=C(C#N)C3(C(=O)Nc4ccc(Br)cc43)c3c(-c4cccs4)nn(-c4ccccc4)c3N2)cc1` (centres unmarked) [Compound 6j], the IC50 in experiment [1] was 26.6 µM; in experiment [5] it was 146 µM; in experiment [2] it was 9.9 µM. Further, the “FRAP, µM (Fe^2+ Eq.)” value in experiment [3] is on record as 10.34 µM (Fe^2+ Eq.). Besides, in experiment [4], the “DPPH radical scavenging IC50” value is reported as 43.42 ± 3.04 µg/mL.

As for `COc1ccc(C2=C(C#N)C3(C(=O)Nc4ccc(Br)cc43)c3c(-c4cccs4)nn(-c4ccccc4)c3N2)cc1` (centres unmarked) [Compound 6k], the concentration for half-maximal inhibition (IC50) in experiment [1] turned out to be 39.1 µM; in experiment [5], 136 µM; in experiment [2], 13.2 µM. Besides, the “FRAP, µM (Fe^2+ Eq.)” value in experiment [3] was 8.499 µM (Fe^2+ Eq.). Moreover, the “DPPH radical scavenging IC50” value in experiment [4] amounted to 69.25 ± 4.25 µg/mL.

As for `N#CC1=C(c2ccc(Cl)cc2)Nc2c(c(-c3cccs3)nn2-c2ccccc2)C12C(=O)Nc1ccc(Br)cc12` (centres unmarked) [Compound 6l], the results for the 50% inhibitory concentration (IC50) in experiment [1] and in experiment [2] were more than 50 µM and 12.7 µM, respectively. For the same compound, the “FRAP, µM (Fe^2+ Eq.)” value in experiment [3] was 11.59 µM (Fe^2+ Eq.). Besides, the “DPPH radical scavenging IC50” value in experiment [4] came out at 41.36 ± 2.17 µg/mL.

For `COc1ccc2c(c1)C1(C(=O)N2)C(C#N)=C(c2ccccc2)Nc2c1c(-c1cccs1)nn2-c1ccccc1` (centres unmarked) [Compound 6m], the IC50 stood at 24.3 µM in experiment [1], 186 µM in experiment [5] and 30.6 µM in experiment [2]. Also, the “FRAP, µM (Fe^2+ Eq.)” value in experiment [3] is 12.13 µM (Fe^2+ Eq.). In addition, in experiment [4], the “DPPH radical scavenging IC50” value is 28.07 ± 1.63 µg/mL.

For the compound `COc1ccc2c(c1)C1(C(=O)N2)C(C#N)=C(c2ccc(C)cc2)Nc2c1c(-c1cccs1)nn2-c1ccccc1` (centres unmarked) [Compound 6n], the IC50 in experiment [1] is 42.8 µM; in experiment [2], more than 50 µM. For the same compound, the “FRAP, µM (Fe^2+ Eq.)” value in experiment [3] is on record as 11.58 µM (Fe^2+ Eq.). For the same compound, the “DPPH radical scavenging IC50” value in experiment [4] is on record as 46.29 ± 2.52 µg/mL.

As to `COc1ccc(C2=C(C#N)C3(C(=O)Nc4ccc(OC)cc43)c3c(-c4cccs4)nn(-c4ccccc4)c3N2)cc1` (centres unmarked) [Compound 6o], the IC50 in experiment [1] and in experiment [2] was more than 50 µM throughout. Further, the “FRAP, µM (Fe^2+ Eq.)” value in experiment [3] is on record as 11.90 µM (Fe^2+ Eq.). Moreover, the “DPPH radical scavenging IC50” value in experiment [4] worked out at 58.82 ± 3.14 µg/mL.

As for `COc1ccc2c(c1)C1(C(=O)N2)C(C#N)=C(c2ccc(Cl)cc2)Nc2c1c(-c1cccs1)nn2-c1ccccc1` (centres unmarked) [Compound 6p], the half-inhibitory concentration (IC50) in experiment [1] and in experiment [2] was more than 50 µM each time. Also, in experiment [3], the “FRAP, µM (Fe^2+ Eq.)” value is reported as 11.18 µM (Fe^2+ Eq.). For the same compound, the “DPPH radical scavenging IC50” value in experiment [4] is 55.05 ± 3.41 µg/mL.

In general, IC50 refers to the concentration needed to halve the response being measured.

These data come from PMC7144320, “Antitumor properties of certain spirooxindoles towards hepatocellular carcinoma endowed with antioxidant activity” (Journal of Enzyme Inhibition and Medicinal Chemistry, 2020).
